The structures appear in SMILES notation.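 Exposure lasted 48 hours, with cells grown in 96-well plates and compounds tested at five concentrations. Definition used: TGI = concentration required for complete inhibition of growth.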

Data on 7 molecules can be found in PubChem BioAssay (NCI).

Holding throughout (assay): inhibition of tumour cell growth, NCI panel, 48 h
In experiment [1] the test system is UACC-257 melanoma.
Experiment [2] relates to NCI-H23 lung.
Experiment [3] concerns HOP-92 NSCLC.
Experiment [4] relates to RPMI-8226 leukemia.
The test system of experiment [5] is SK-MEL-2 melanoma.
Experiment [6] relates to BT-549 breast.
Experiment [7] relates to SK-MEL-5 melanoma.
Experiment [8] has as its system OVCAR-4 ovarian.
Experiment [9] has as its system SR leukemia.
Experiment [10] relates to COLO 205 colon.
In experiment [11] the test system is HS 578T breast.
Experiment [12] relates to UACC-62 melanoma.
Experiment [13] concerns IGROV1 ovarian.
For experiment [14], the system named is SN12C renal.
Experiment [15] concerns A498 renal.
Experiment [16] relates to MOLT-4 leukemia.
Experiment [17] has as its system HT29 colon.
Experiment [18] concerns HCT-15 colon.
Experiment [19] deals with SK-OV-3 ovarian.

`CC(OCc1ccccc1)C(NC(=O)C1CSSCC(NC(=O)C(Cc2ccccc2)NC(=O)OCc2ccccc2)C(=O)NC(Cc2ccccc2)C(=O)NC(Cc2cn(C=O)c3ccccc23)C(=O)NC(CCCCNC(=O)OCc2ccccc2)C(=O)NC(C(C)OCc2ccccc2)C(=O)N1)C(N)=O` (stereo not drawn): the TGI is more than 93 µM in [1]; more than 100 µM in experiment [2]; more than 100 µM in experiment [3]; 53.3 µM in experiment [4]; 28.7 µM in [5]; more than 66.5 µM in experiment [6]. In addition, the TGI in experiment [7] was more than 73.8 µM; in experiment [8], more than 79.3 µM; in experiment [9], more than 93.4 µM; in [10], 10.5 µM; in experiment [11], more than 100 µM; in experiment [12], more than 100 µM. Besides, the TGI in experiment [13] is more than 100 µM; in experiment [14], more than 100 µM; in experiment [15], 63.5 µM; in experiment [16] it was more than 37.9 µM; in experiment [17], more than 100 µM; in [18], more than 100 µM. Besides, the TGI in experiment [19] was more than 100 µM.
Turning to `O=c1c2ncn(CCCl)c2n(-c2ccccc2)c(=S)n1-c1ccccc1`, the TGI in [1], in [2], in experiment [3], in [4], in experiment [5] and in experiment [6] was more than 100 µM throughout. The TGI in experiment [7], in [8], in [9], in [10], in experiment [11] and in [12] was more than 100 µM throughout. Also, the TGI in [13], in experiment [14], in experiment [15], in experiment [16], in experiment [17] and in experiment [18] was more than 100 µM throughout. The molecule further showed a TGI in [19] of more than 100 µM.
Consider `O=C1CSC(/C=C/c2ccccc2)N1c1ccc(-n2c(-c3ccccc3)nc3ccccc3c2=O)cc1` (stereo not drawn), for which the TGI in experiment [1], in [2], in [3], in experiment [4], in experiment [5] and in experiment [6] was more than 100 µM in each case. Further, the TGI in [7] was more than 100 µM; in experiment [8], 86.2 µM; in experiment [9], more than 100 µM; in experiment [10], more than 100 µM; in [11] it was more than 100 µM; in [12], more than 100 µM. For the same molecule, the TGI in experiment [13], in experiment [14], in experiment [15], in experiment [16], in [17] and in [18] was more than 100 µM throughout. This molecule also came in with a TGI in experiment [19] of 69 µM.
In the case of `CC(=O)NNc1nc(C)c(C(/C=C/c2ccc(NC(C)=O)cc2)=N/NS(=O)(=O)c2ccc(C)cc2)s1`, the TGI in [1], in experiment [2], in experiment [3], in experiment [4], in experiment [5] and in experiment [6] was more than 100 µM throughout. Besides, the TGI in experiment [7], in [8], in experiment [9], in experiment [10], in experiment [11] and in [12] was more than 100 µM each time. The TGI in [13], in [14], in experiment [15], in [16], in experiment [17] and in [18] was more than 100 µM in each case. Besides, the TGI in [19] is more than 100 µM.
As to `CC1(C)C(=O)C2(C#N)CCC1C2` (stereo not drawn), the TGI in experiment [1], in experiment [2], in experiment [3], in [4], in [5] and in experiment [6] was more than 100 µM in each case. The TGI in experiment [7], in experiment [8], in experiment [9], in [10], in [11] and in [12] was more than 100 µM in each case. Besides, the TGI in [13], in experiment [14], in [15], in experiment [16], in [17] and in experiment [18] was more than 100 µM throughout. In addition, in [19], the TGI is more than 100 µM.
Regarding `CN(C)/C=N/S(=O)(=O)c1nn2c(C=O)c(-c3ccc([N+](=O)[O-])cc3)nc2s1`, the TGI in [1] was 40.5 µM; in experiment [2] it was 49.7 µM; in experiment [3], 53.5 µM; in experiment [4], more than 60.9 µM; in experiment [5], 51.3 µM; in experiment [6], 25.5 µM. For the same molecule, the TGI in [7] was 17.4 µM; in experiment [8], 39.7 µM; in [9], more than 43.3 µM; in [10] it was more than 34.3 µM; in experiment [11], more than 71.8 µM; in [12], 23 µM. For the same molecule, the TGI in experiment [13] was 17.6 µM; in [14] it was 22.6 µM; in experiment [15], more than 100 µM; in experiment [16] it was more than 21.8 µM; in experiment [17], 4.38 µM; in experiment [18], more than 49.6 µM. The TGI in [19] is more than 100 µM.
Consider `N#CC(c1ccccc1)N(CCc1ccccc1)C(=O)Oc1ccccc1` (stereo not drawn), for which the TGI in experiment [1] was more than 100 µM; in [2], more than 100 µM; in experiment [3] it was 95.7 µM; in experiment [4], more than 100 µM; in [5], more than 100 µM; in [6], more than 100 µM. The TGI in experiment [7], in [8], in experiment [9], in experiment [10], in experiment [11] and in experiment [12] was more than 100 µM each time. For the same molecule, the TGI in [13], in experiment [14], in [15], in [16], in experiment [17] and in [18] was more than 100 µM throughout. Further, in experiment [19], the TGI is more than 100 µM.
